Laboratory results published in ChEMBL document CHEMBL1140379, “Extraction and visualization of potential pharmacophore points using support vector machines: application to ligand-based virtual screening for COX-2 inhibitors” (J Med Chem, 2005).

Biological target: T1, Prostaglandin G/H synthase 2 (Homo sapiens, UniProt P35354)
T1 sequence (P35354 whole entry): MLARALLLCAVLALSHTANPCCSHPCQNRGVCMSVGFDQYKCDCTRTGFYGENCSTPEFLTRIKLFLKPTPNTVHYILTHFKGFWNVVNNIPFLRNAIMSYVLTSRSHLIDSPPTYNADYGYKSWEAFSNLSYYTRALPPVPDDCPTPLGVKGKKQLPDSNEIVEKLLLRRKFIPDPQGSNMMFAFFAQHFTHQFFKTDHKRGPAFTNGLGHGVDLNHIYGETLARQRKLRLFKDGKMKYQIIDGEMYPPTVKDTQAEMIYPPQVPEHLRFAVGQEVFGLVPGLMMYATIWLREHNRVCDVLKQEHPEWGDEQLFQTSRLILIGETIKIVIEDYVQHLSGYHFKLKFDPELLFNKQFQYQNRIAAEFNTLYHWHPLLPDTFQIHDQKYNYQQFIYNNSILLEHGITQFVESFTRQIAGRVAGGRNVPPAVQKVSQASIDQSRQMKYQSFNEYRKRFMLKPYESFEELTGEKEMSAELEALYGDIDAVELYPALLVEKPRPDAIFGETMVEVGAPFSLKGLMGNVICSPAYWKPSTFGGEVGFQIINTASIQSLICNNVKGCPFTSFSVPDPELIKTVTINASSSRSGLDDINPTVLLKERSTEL
Assay: Inhibitory concentration against COX-2 upon incubation for 15 minutes at 37 degree C

| Structure (SMILES) | IC50 [µM] |
| --- | --- |
| COc1ccccc1-n1c(-c2ccc(S(N)(=O)=O)cc2)nc2ccccc21 | 8 |
| NS(=O)(=O)c1ccc(-c2nc3ccccc3n2-c2ccc(Cl)cc2)cc1 | 0.2 |
